From patent publication EP2123328A1 (priority 2008, dated 2009) come the findings set out here.

Read-outs that look alike come from different tables or passages of the source.

The target of assay [1] is T1, γ-secretase (Homo sapiens, UniProt P49768).
T1 construct: endogenous in cells; host or cells: HEK293 cells stably expressing APP751
Briefly: Inhibitory effect on γ-secretase: ELISA of human β-amyloid in the cell medium of APP751-expressing HEK293 cells. In kind it is cell-based. The conditions noted are these: for concentrations at which the substances have γ-secretase activity / decrease of β-amyloid quantity in the cell medium: tested at 0,02, 0,2 and 2 µM, Figure 2; for quantity of amyloid β: concentration 0,02 µM; for quantity of amyloid β / γ-Secretase effect: figure 3; for γ-Secretase effect: concentration 2 µM, compared with DAPT. The protocol:
To a solution of norgalanthamine hydrochloride (0.42 g 1.3560 mmol) in DMF under cooling Et3N (0.19 ml 1.3520 mmol) and N-(3,4-dichlorophenyl)-alanyl-valine (0.50 g 1.5009 mmol) and N-cyclohexyl-N-[β-(N-methylformolino)-ethyl-] carbodiimide (0.64 g 1.5109 mmol) was added. The reaction mixture was stirred for 24 hours at room temperature and the end of reaction was monitored in a system of n-BuOH:AcOH:H2O= 3:1:1 To the reaction mixture 5 % NaHCO3 was add, followed by precipitate formation. The precipitate was washed by suspending in 5 % NaHCO3 and H2O. […] 137-141 °C, yield 37 %, chromatographically pure in a system of CHCl3:MeOH=9:1 and n-BuOH:AcOH:H2O= 3:1:1. IR [cm^-1]: 3384, 3062, 3028, 2930, 1640, 1599, 1280, 1240, 1059, 753, 701. HPLC: Rt= 2.58 and 2.76 min for S and R isomers. 1H NMR (CDCl3, ppm ) δ: 7.10-7.30 (2H, NH), 7.0-6.20 (10H, 5H Ph + H9', H10'+ 3H PhCl), 6.0 (m, 2H, H4', H5'), 4.7-4.4 (m, 4H, CH2NCH2), 4.5 (m, 1H, H1'), 4.14 (m, 1H, H3'), 3.85 (s, 3H, O-CH3), 3.90 (m, 1H, CHCH2Ph), 3.75 (q, 1H, CHCH3), 3.20 (m, 1H, CHCH2Ph), 2.70 (d, J=15.9 Hz, 1H, H2a'), 2.02 (d, J=15.9 Hz, 1H, H2b'), 1.90 (m, CH2), 1.30 (d, , 3H, CHCH3). Elemental analysis - nitrogen determination: C34H36N3Cl2O5, M.M= 636.54 theoretical 6.60 % N, calculated 6.62 % N. Mass spectrometry: C34H36N3Cl2O5, M.M= 636.20 found [M+H]^+=636.55. […] 133-138 °C, yield 35 %, chromatographically pure in a system of CHCl3:MeOH=9:1 and n-BuOH:AcOH:H2O= 3:1:1. IR [cm^-1]: 3338, 2963, 2931, 2874, 1656, 1630, 1599, 1382, 1373, 1279, 1214, 1059. HPLC: Rt= 2.35 and 2.53 min for S and R isomers. 1H NMR (CDCl3, ppm) δ: 7.10-7.30 (2H, NH), 7.0-6.20 (5H, H9', H10', 3H PhCl), 5.90 (m, 2H, H4', H5'), 4.7-4.4 (m, 4H, CH2NCH2), 4.5 (m, 1H, H1'), 4.15 (m, 1H, H3'), 3.86 (s, 3H, O-CH3), 3.85 (m, 1H, H2), 3.75 (q, 1H, CHCH3), 3.20 (m, 1H), 2.70 (d, J=15.9 Hz, 1H, H2a'), 2.40 (m, 1H, CH(CH3)2), 2.02 (d, J=15.9 Hz, 1H, H2b'), 1.90 (m, CH2), 1.30 (d, 3H, CHCH3), 0.80 (d, 6H, 2 x CH3). Elemental analysis - nitrogen determination: C29H33N3Cl2O5, M.M= 588.41 calculated 7.14 % N, found 6.98 % N. Mass spectrometry: C29H33N3Cl2O5, M.M= 587.20 found [M+H]^+=588.45. Example 14 The study of inhibitory effect on γ-secretase of the compounds under the inventions took place on expressing APP751 HEK293 cells using the following methods: (1) cell cultivation of expressing APP751 HEK293 cells, and (2) ELISA (solid-phase sandwich enzyme-linked immunosorbent assay) of human β-amyloid protein. HEK293 cells were cultivated in Dulbecco's modified Eaglr's medium (Applichem, Germany) with added 10% fetal calf serum (Biowhittaker, USA) and 200 U/ml Penicillin and […] Streptomycin (Applichem, Germany) at 37°C and 5% CO2. ELISA kits of human β-amyloid are intended for in vitro quantitative determination of a native or recombinant β-amyloid in serum, supernatant of cell cultures or other biological samples. In short, a monoclonal antibody specific for the amino end of β-amyloid was immobilized for a 96-pit plate. β-amyloid antigen from the standards or from the samples was connected with this first antibody. Then a second antibody was placed for detection of the specific β-amyloid 1 - 42. An anti-rabbit antibody IgG-HRP completed the sandwich. The reaction was visualized by means of 3,3",5,5"-tetramethylbenzidine (TMB) substrate, following by a stop solution. Yellow colour intensity was in direct proportion to the concentration of β-amyloid in the original sample. The sensitivity of these ELISA was < 10 pg/ml β-amyloid. ELISA method was used to study the inhibitory effect on γ-secretase of the compounds obtained according to the invention on expressing APP751 HEK293 cells. The following abbreviations were used: • 1. 6-O-N-[N- (3,4-dichlorophenyl)-D,L-alanyl]-glycil-galanthamine - AG-GAL • 2. […] 6-O-N-[N- (3,4-dichlorophenyl)-D,L-alanyl]-L-leucil-glycil-galanthamine - ALG-GAL • 4. 6-O-N-[N- (3,4-dichlorophenyl)-D,L-alanyl]-L-valyl-glycil-galanthamine - AVG-GAL • 5. N-(3,4-dichlorophenyl)-D,L-alanyl-L-phenylalanine - AF • 6. […]

In assay [2] the target is T2, acetylcholinesterase (Homo sapiens, UniProt P22303).
T2 construct: purchased Sigma
T2 sequence (P22303 32-614, species assumed): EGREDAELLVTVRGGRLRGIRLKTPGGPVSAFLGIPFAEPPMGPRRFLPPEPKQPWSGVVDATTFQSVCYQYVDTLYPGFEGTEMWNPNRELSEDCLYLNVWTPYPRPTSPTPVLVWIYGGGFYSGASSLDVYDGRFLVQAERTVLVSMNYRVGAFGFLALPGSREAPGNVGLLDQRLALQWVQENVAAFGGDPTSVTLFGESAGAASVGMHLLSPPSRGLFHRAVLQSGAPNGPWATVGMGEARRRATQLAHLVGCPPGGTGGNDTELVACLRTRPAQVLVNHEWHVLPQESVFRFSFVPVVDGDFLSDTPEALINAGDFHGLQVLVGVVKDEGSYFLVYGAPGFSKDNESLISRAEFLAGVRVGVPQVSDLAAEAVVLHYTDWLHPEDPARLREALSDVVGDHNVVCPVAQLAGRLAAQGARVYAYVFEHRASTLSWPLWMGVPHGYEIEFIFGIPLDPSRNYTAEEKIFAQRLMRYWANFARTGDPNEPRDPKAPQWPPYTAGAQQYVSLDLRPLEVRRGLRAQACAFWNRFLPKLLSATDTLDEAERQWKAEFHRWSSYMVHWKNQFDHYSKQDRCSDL
As to the kind of experiment: biochemical. The protocol:
Acetylcholine iodide was used as substrate. Acetylcholinesterase is a commercial product (Sigma). […] After stirring, 1 EU acetylcholinesterase was added. […] Each test was repeated 3 times. The test substances was dissolved in 50% ethyl alcohol.

The target in assay [3] is T3, butyrylcholinesterase (Homo sapiens, UniProt P06276).
T3 construct: purchased Sigma
T3 sequence (P06276 29-602): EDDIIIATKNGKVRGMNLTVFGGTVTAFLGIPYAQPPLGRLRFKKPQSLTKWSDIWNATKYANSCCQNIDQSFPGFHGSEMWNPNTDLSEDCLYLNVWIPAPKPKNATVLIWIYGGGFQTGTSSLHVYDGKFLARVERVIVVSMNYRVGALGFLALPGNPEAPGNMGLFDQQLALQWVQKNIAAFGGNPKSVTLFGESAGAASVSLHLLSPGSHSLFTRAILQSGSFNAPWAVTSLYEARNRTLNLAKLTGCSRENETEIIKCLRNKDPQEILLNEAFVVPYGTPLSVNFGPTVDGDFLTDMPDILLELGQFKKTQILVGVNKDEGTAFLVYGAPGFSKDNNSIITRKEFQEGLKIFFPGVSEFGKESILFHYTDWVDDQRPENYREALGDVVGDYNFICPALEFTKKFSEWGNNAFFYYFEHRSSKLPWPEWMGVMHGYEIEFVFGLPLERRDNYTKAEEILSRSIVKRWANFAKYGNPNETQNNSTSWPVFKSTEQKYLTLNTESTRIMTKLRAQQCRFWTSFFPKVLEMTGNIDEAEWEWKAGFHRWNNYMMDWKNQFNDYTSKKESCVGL
Briefly: biochemical.
Protocol: In studying the inhibitory effect of the compounds according to the invention, a modified Elman's method was used. Butyrylcholine iodide was used as substrate. Butyrylcholinesterase is a commercial product (Sigma). Enzyme activity determination was performed in 0,1 M sodium phosphate buffer pH 8,0 at 25 °C. To 1 ml of the buffer, 90 mcl (7,5 MM) butyrylcholine iodide and 45 mcl (10 MM) 5,5'-ditiobis-2-nitrobenzoic acid (DTNB) were added. After stirring, 1 EU butyrylcholinesterase was added. The enzyme reaction was monitored according to the change of absorption at 412 nm in a period of 2 to10 min. The speed of the enzyme reaction was calculated in M/l.sec, using an absorption coefficient of 14,15 .10^3 1/M.cm (Eyer). Each test was repeated 3 times. The substances under study were dissolved in 50% ethyl alcohol. To trace the inhibiting effect, the compounds under study were added in different concentrations to 1,5 ml of phosphate buffer and 1 EU enzyme. They were incubated for 30 min at 25 °C, then butyrylcholine iodide and DTNB were added and the course of the enzyme reaction was monitored according to the description above. […] After a preliminary screening, such concentrations of the test substances were selected that have an inhibiting effect between 20 and 80%. To determine the inhibition constant (Ki), minimum 3 different concentrations of the test compounds under study were used. The inhibition curves for each selected concentration of the inhibitor were made using the method of double reciprocal values (Lineweaver, Burk), substrate concentration being within 90 - 3300 .10^-6 M/l. IC50 values were determined using the log-probit method. The calculations were made using the matlab6 program. IC50 values were made on the basis of experimental data obtained for different concentrations of the compounds manifesting inhibitory activity.

[4] abbreviates: 0,1 M sodium phosphate buffer pH 8,0, 25 °C, 30 min preincubation, acetylcholine iodide substrate, read-out: IC50.
The mark [5] stands for this setting: 0,1 M sodium phosphate buffer pH 8,0, 25 °C, 30 min preincubation, butyrylcholine iodide substrate, read-out: IC50.

`COc1ccc2c3c1OC1CC(OC(=O)CNC(=O)C(NC(=O)C(C)Nc4ccc(Cl)c(Cl)c4)C(C)C)C=CC31CCN(C)C2` [Compound 4, 6-O-N-[N-(3,4-dichlorophenyl)-D,L-alanyl]-L-valyl-glycil-galanthamine]: the “concentrations at which the substances have γ-secretase activity” value in assay [1] (6 hours incubation) is on record as “higher than 0,02 µM”. For the same compound, in assay [1] (6 hours incubation), the “decrease of β-amyloid quantity in the cell medium” value is reported as “significant decrease”. Also, the half-inhibitory concentration (IC50) in assay [2] (setting [4]) was 8.33 µM; in assay [3] (setting [5]) it was 0.335 µM.

In the case of `COc1ccc2c3c1OC1CC(O)C=CC31CCN(C(=O)C(NC(=O)C(C)Nc1ccc(Cl)c(Cl)c1)C(C)C)C2` [Compound 6, 11-N-demethyl-11-N-N-[N-(3,4-dichlorophenyl)-D,L-alanyl]-L-valyl-galanthamine], the IC50 in assay [2] (setting [4]) stood at 31.2 µM; in assay [3] (setting [5]), 0.603 µM.

Turning to `COc1ccc2c3c1OC1CC(OC(=O)CNC(=O)C(CC(C)C)NC(=O)C(C)Nc4ccc(Cl)c(Cl)c4)C=CC31CCN(C)C2` [Compound 3, 6-O-N-[N-(3,4-dichlorophenyl)-D,L-alanyl]-L-leucil-glycil-galanthamine], in assay [1], the “quantity of amyloid β” value is on record as “decreased significantly” and the γ-Secretase effect result is given as “comparable with the effect of DAPT”. Moreover, the IC50 in assay [2] (setting [4]) was 3.35 µM. Moreover, in assay [3] (setting [5]), the IC50 was determined as 0.612 µM.

Consider `COc1ccc2c3c1OC1CC(OC(=O)CNC(=O)C(Cc4ccccc4)NC(=O)C(C)Nc4ccc(Cl)c(Cl)c4)C=CC31CCN(C)C2` [Compound 2, 6-O-N-[N-(3,4-dichlorophenyl)-D,L-alanyl]-L-phenylalanyl-glycil galanthamine], for which the values for the 50% inhibitory concentration (IC50) in assay [2] (setting [4]) and in assay [3] (setting [5]) were 3.76 µM and 10 µM, respectively.

For the compound `CC(Nc1ccc(Cl)c(Cl)c1)C(=O)N[C@@H](Cc1ccccc1)C(=O)O` (mixture of isomers) [AF, N-(3,4-dichlorophenyl)-D,L-alanyl-L-phenylalanine], the γ-Secretase effect result in assay [1] is reported as “comparable with the effect of DAPT”.

As to `COc1ccc2c3c1O[C@H]1C[C@@H](OC(=O)CNC(=O)C(C)Nc4ccc(Cl)c(Cl)c4)C=C[C@@]31CCN(C)C2` (stereo partly drawn) [Compound 1, 6-O-N-[N-(3,4-dichlorophenyl)-D,L-alanyl]-glycil-galanthamine], in assay [1], the “quantity of amyloid β” value is reported as “decreased significantly” and the γ-Secretase effect entry is “no inhibitory effect”. Besides, in assay [2], it took 3.98 µM to reach half-maximal inhibition (IC50). Moreover, the 50% inhibitory concentration (IC50) in assay [3] worked out at 23.7 µM.

Consider `COc1ccc2c3c1O[C@H]1C[C@@H](O)C=C[C@@]31CCN(C(=O)[C@H](Cc1ccccc1)NC(=O)C(C)Nc1ccc(Cl)c(Cl)c1)C2` (stereo partly drawn) [Compound 5, 11-N-demethyl-11-N-N-[N-(3,4-dichlorophenyl)-D,L-alanyl]-L-phenylalanyl-galanthamine], for which the IC50 worked out at 12.5 µM in assay [2] and 0.447 µM in assay [3].

As for `C[C@H](NC(=O)Cc1cc(F)cc(F)c1)C(=O)N[C@H](C(=O)OC(C)(C)C)c1ccccc1` [DAPT, N-[N-(3,5-difluorophenylacetyl)-L-alanyl]-S-phenylglycin tertiary butyl ester, reference compound], the “concentrations at which the quantity of β amyloid is decreased by inhibiting γ-secretase activity” value in assay [1] (6 hours incubation, serum-free medium, figure 1) is on record as “higher than 160 nM”.

With `CC(C)C[C@H](NC(=O)C(C)Nc1ccc(Cl)c(Cl)c1)C(=O)O` (mixture of isomers) [AL, N-(3,4-dichlorophenyl)-D,L-alanyl-L-leucine], in assay [1] (6 hours incubation), the “concentrations at which the substances have γ-secretase activity” value is reported as “higher than 0,02 µM” and the “decrease of β-amyloid quantity in the cell medium” value is listed as “significant decrease”.
